Laboratory results published in patent EP4678644A1, “SUBSTITUTED DIHYDROTHIENOPYRIMIDINE COMPOUND, PREPARATION METHOD THEREFOR, AND USE THEREOF” (Shanghai Yidi Biotechnology Co., Ltd., priority 2023, dated 2024).

Assays:
PDE4B2 [1] = biological target: T1, PDE4B2 (Homo sapiens, UniProt Q07343); experiment: PDE4B2 enzyme experiment (AMP-glo, cAMP substrate); type: biochemical; conditions: for inhibition at 0.01 µM: read-out: PDE4B2 Enzyme Inhibition% @10 nM; for inhibition at 0.1 µM: read-out: PDE4B2 Enzyme Inhibition% @100 nM
T1 construct: expressed in transfected cells; host or cells: Flp-In-293 (Flpin-293-PDE4B2 [sic])

PDE4B2 [2] = biological target: T1, PDE4B2; experiment: PDE4B2 cell experiment (cAMP, Eu-cAMP tracer / Ulight-anti-cAMP); type: cell-based; conditions: Flpin-293-PDE4B2 cells; for IC50: Foskolin; for Cell Inhibition% @1 nM / inhibition at 0.001 µM: 1 nM; for Cell Inhibition% @10 nM / inhibition at 0.01 µM: 10 nM; for Cell Inhibition% @100 nM / inhibition at 0.1 µM: 100 nM

T1 sequence (Q07343 1-564 isoform Q07343-2): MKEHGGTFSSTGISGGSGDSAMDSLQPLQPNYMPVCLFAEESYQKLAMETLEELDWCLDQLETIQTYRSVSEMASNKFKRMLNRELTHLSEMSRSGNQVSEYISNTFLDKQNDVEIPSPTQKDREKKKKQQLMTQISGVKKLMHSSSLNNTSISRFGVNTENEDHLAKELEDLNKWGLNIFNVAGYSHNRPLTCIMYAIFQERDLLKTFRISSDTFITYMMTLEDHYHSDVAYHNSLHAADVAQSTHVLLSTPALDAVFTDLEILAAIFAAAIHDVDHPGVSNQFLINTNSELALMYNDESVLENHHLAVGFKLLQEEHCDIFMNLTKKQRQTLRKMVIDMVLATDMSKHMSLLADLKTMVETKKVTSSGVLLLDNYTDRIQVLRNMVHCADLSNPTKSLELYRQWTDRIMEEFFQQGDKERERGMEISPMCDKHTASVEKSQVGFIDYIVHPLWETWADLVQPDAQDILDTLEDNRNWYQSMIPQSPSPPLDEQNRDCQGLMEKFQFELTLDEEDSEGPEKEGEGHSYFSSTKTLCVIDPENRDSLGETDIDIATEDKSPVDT

Cell Inhibition% @10 nM (PDE4B2 [2]) [%] | Cell Inhibition% @100 nM (PDE4B2 [2]) [%] | Cell Inhibition% @1 nM (PDE4B2 [2]) [%] | SMILES | also measured
52.78 | 93.43 |  | [O-][S+]1CCc2nc(N3CCc4sc(Br)cc4C3)nc(NC3(CO)CCC3)c21 (stereo not drawn) [Compound 55] | PDE4B2 Enzyme Inhibition% @10 nM (PDE4B2 [1]): 93.26%; PDE4B2 Enzyme Inhibition% @100 nM (PDE4B2 [1]): 99.90%
65.40 | 97.85 | 17.70 | [O-][S+]1CCc2nc(N3CC[C@@H]4c5ccc(F)cc5OC[C@H]4C3)nc(NC3(CO)CCC3)c21 (stereo partly drawn) [Compound 109] | 
54.08 | 99.44 | 12.30 | Cc1ccc2c(c1)OC[C@H]1CN(c3nc4c(c(NC5(CO)CCC5)n3)[S+]([O-])CC4)CC[C@H]21 (stereo partly drawn) [Compound 112] | 
 |  |  | C[C@H]1c2ccc(Cl)cc2CCN1c1nc2c(c(NC3(CO)CCC3)n1)[S@+]([O-])CC2 [Compound 28, (R)-2-((S)-6-chloro-1-methyl-3,4-dihydroisoquinolin-2(1H)-yl)-4-((1-(hydroxymethyl)cyclobutyl)amino)-6,7-dihydrothieno[3,2-d]pyrimidine 5-oxide] | IC50 (PDE4B2 [1]): 0.68 nM; IC50 (PDE4B2 [2]): 36.3 nM
 |  |  | [O-][S@+]1CCc2nc(N3CCc4c(ccc5[nH]ncc45)C3)nc(NC3(CO)CCC3)c21 [Compound 118, (R)-4-((1-(hydroxymethyl)cyclobutyl)amino)-2-(3,6,8,9-tetrahydro-7H-pyrazolo[4,3-f]isoquinolin-7-yl)-6,7-dihydrothieno[3,2-d]pyrimidine 5-oxide] | inhibition at 0.001 µM (PDE4B2 [2]): 11.1%; inhibition at 0.01 µM (PDE4B2 [2]): 41.7%; inhibition at 0.1 µM (PDE4B2 [2]): 89%
29.5 | 69.1 |  | [O-][S+]1CCc2nc(N3Cc4ccc(C(F)(F)F)cc4C3)nc(NC3(CO)CCC3)c21 (stereo not drawn) [Compound 62] | PDE4B2 Enzyme Inhibition% @10 nM (PDE4B2 [1]): 83.85%; PDE4B2 Enzyme Inhibition% @100 nM (PDE4B2 [1]): 100.57%
14 | 62 |  | [O-][S+]1CCc2nc(N3CCc4ccc(Cl)cc4CC3)nc(NC3(CO)CCC3)c21 (stereo not drawn) [Compound 34] | IC50 (PDE4B2 [1]): 1.96 nM
 |  |  | [O-][S+]1CCc2nc(N3CCc4cc(F)ccc4C3)nc(NC3(CO)CCC3)c21 (stereo not drawn) [Compound 23] | IC50 (PDE4B2 [1]): 2.84 nM; IC50 (PDE4B2 [2]): 29.1 nM
9 | 33.2 |  | [O-][S+]1CCc2nc(N3Cc4ccc(Cl)cc4C3)nc(NC3(CO)CCC3)c21 (stereo not drawn) [Compound 33] | PDE4B2 Enzyme Inhibition% @10 nM (PDE4B2 [1]): 72.33%; PDE4B2 Enzyme Inhibition% @100 nM (PDE4B2 [1]): 98.64%
15.88 | 57.11 |  | Cn1nc2c(c1Cl)CN(c1nc3c(c(NC4(CO)CCC4)n1)[S+]([O-])CC3)CC2 (stereo not drawn) [Compound 58] | PDE4B2 Enzyme Inhibition% @10 nM (PDE4B2 [1]): 68.74%; PDE4B2 Enzyme Inhibition% @100 nM (PDE4B2 [1]): 97.48%
24.88 | 51.36 | 4.93 | NC(=O)c1ccc2c(c1)CCN(c1nc3c(c(NC4(CO)CCC4)n1)[S+]([O-])CC3)C2 (stereo not drawn) [Compound 75] | IC50 (PDE4B2 [1]): 0.81 nM
 |  |  | [O-][S@+]1CCc2nc(N3CC[C@@H]4c5ccc(Cl)cc5CC[C@@H]4C3)nc(NC3(CO)CCC3)c21 [Compound 12, (R)-2-((4aS,10bS)-8-chloro-1,4,4a,5,6,10-hexahydrobenzo[f]isoquinolin-3(2H)-yl)-4-((1-(hydroxymethyl)cyclobutyl)amino)-6,7-dihydrothieno[3,2-d]pyrimidine 5-oxide] | IC50 (PDE4B2 [1]): 15.4 nM; inhibition at 0.01 µM (PDE4B2 [2]): 16%; inhibition at 0.1 µM (PDE4B2 [2]): 7.46%
 |  |  | [O-][S+]1CCc2nc(N3CCc4c(nn5cccc(Cl)c45)C3)nc(NC3(CO)CCC3)c21 (stereo not drawn) [Compound 10] | IC50 (PDE4B2 [1]): 2.31 nM; IC50 (PDE4B2 [2]): 73.8 nM
18.10 | 66.60 |  | [O-][S+]1CCc2nc(N3CCc4ccsc4C3)nc(NC3(CO)CCC3)c21 (stereo not drawn) [Compound 36] | PDE4B2 Enzyme Inhibition% @10 nM (PDE4B2 [1]): 74.54%; PDE4B2 Enzyme Inhibition% @100 nM (PDE4B2 [1]): 99.04%
 |  |  | Cn1cnc2c1CN(c1nc3c(c(NC4(CO)CCC4)n1)[S@+]([O-])CC3)CC2 [Compound 38, (R)-4-((1-(hydroxymethyl)cyclobutyl)amino)-2-(3-methyl-3,4,6,7-tetrahydro-5H-imidazo[4,5-c]pyridin-5-yl)-6,7-dihydrothieno[3,2-d]pyrimidine-5-oxide] | inhibition at 0.01 µM (PDE4B2 [1]): 35.4%; inhibition at 0.1 µM (PDE4B2 [1]): 84.7%; inhibition at 0.01 µM (PDE4B2 [2]): 20.3%; inhibition at 0.1 µM (PDE4B2 [2]): 38.2%
17.36 | 86.54 | 1.66 | [O-][S+]1CCc2nc(N3CCC4=C(COc5ccccc54)C3)nc(NC3(CO)CCC3)c21 (stereo not drawn) [Compound 97] | 
 |  |  | COc1ccc2c(c1)CCN(c1nc3c(c(NC4(CO)CCC4)n1)[S+]([O-])CC3)CC2 (stereo not drawn) [Compound 47] | PDE4B2 Enzyme Inhibition% @10 nM (PDE4B2 [1]): 98.41%; PDE4B2 Enzyme Inhibition% @100 nM (PDE4B2 [1]): 100.06%; IC50 (PDE4B2 [2]): 6.28 nM
6.8 | 66.7 | -4.2 | [O-][S+]1CCc2nc(N3CCc4cc(F)c(F)cc4C3)nc(NC3(CO)CCC3)c21 (stereo not drawn) [Compound 95] | 
39.69 | 97.73 | 7.72 | [O-][S+]1CCc2nc(N3CC[C@@H]4c5ccc(Br)cc5OC[C@H]4C3)nc(NC3(CO)CCC3)c21 (stereo partly drawn) [Compound 115] | 

Cell Inhibition% @10 nM (PDE4B2 [2]) [%] | Cell Inhibition% @100 nM (PDE4B2 [2]) [%] | Cell Inhibition% @1 nM (PDE4B2 [2]) [%] | SMILES | also measured
22.21 | 81.06 | 8.07 | [O-][S+]1CCc2nc(N3CC[C@@H]4c5ccc(C(F)(F)F)cc5OC[C@H]4C3)nc(NC3(CO)CCC3)c21 (stereo partly drawn) [Compound 111] | 
15.7 | 84.8 | -2.7 | [O-][S+]1CCc2nc(N3CCc4cc(Cl)c(F)cc4C3)nc(NC3(CO)CCC3)c21 (stereo not drawn) [Compound 96] | 
 |  |  | [O-][S@@+]1CCc2nc(N3CCc4nn5cc(Cl)cnc5c4C3)nc(NC3(CO)CCC3)c21 [Compound 3] | IC50 (PDE4B2 [1]): 926 nM
 |  |  | [O-][S@+]1CCc2nc(N3CC[C@@H]4c5ccncc5OC[C@H]4C3)nc(NC3(CO)CCC3)c21 [Compound 113, (R)-4-((1-(hydroxymethyl)cyclobutyl)amino)-2-((6aR,10aS)-6a,9,10,10-tetrahydro-6H-pyrano[2,3-c:5,4-c']dipyridin-8(7H)-yl)-6,7-dihydrothieno[3,2-d]pyrimidine 5-oxide] | inhibition at 0.001 µM (PDE4B2 [2]): 5.01%; inhibition at 0.01 µM (PDE4B2 [2]): 22.8%; inhibition at 0.1 µM (PDE4B2 [2]): 71.9%
31.33 | 89.06 | 2.90 | O=C1CCCN1c1ccc2c(c1)CCN(c1nc3c(c(NC4(CO)CCC4)n1)[S+]([O-])CC3)C2 (stereo not drawn) [Compound 87] | 
35.86 | 95.46 | -0.08 | Nc1nc2cc(Cl)ccc2c2c1CN(c1nc3c(c(NC4(CO)CCC4)n1)[S+]([O-])CC3)CC2 (stereo not drawn) [Compound 102] | 
21.18 | 67.52 | 0.41 | [O-][n+]1cc2c(c3ccc(Cl)cc31)CCN(c1nc3c(c(NC4(CO)CCC4)n1)[S+]([O-])CC3)C2 (stereo not drawn) [Compound 106] | 
17.32 | 61.63 | 5.32 | [O-][S+]1CCc2nc(N3CC[C@H]4c5cnc(Cl)cc5OC[C@@H]4C3)nc(NC3(CO)CCC3)c21 (stereo partly drawn) [Compound 117] | 
 |  |  | [O-][S+]1CCc2nc(N3CCc4scnc4C3)nc(NC3(CO)CCC3)c21 (stereo not drawn) [Compound 17] | IC50 (PDE4B2 [1]): 471 nM
 |  |  | Cn1cc2c(n1)CCN(c1nc3c(c(NC4(CO)CCC4)n1)[S+]([O-])CC3)C2 (stereo not drawn) [Compound 31] | IC50 (PDE4B2 [1]): 7.42 nM
42.53 | 93.48 | 7.53 | Cn1nc(Cl)c2c3c(cnc21)CN(c1nc2c(c(NC4(CO)CCC4)n1)[S+]([O-])CC2)CC3 (stereo not drawn) [Compound 105] | 
 |  |  | [O-][S@+]1CCc2nc(N3CCc4c(Br)csc4C3)nc(NC3(CO)CCC3)c21 [Compound 54, (R)-2-(3-bromo-4,7-dihydrothieno[2,3-c]pyridin-6(5H)-yl)-4-((1-(hydroxymethyl)cyclobutyl)amino)-6,7-dihydrothieno[3,2-d]pyrimidine 5-oxide] | inhibition at 0.001 µM (PDE4B2 [1]; read-out: PDE4B2 Enzyme Inhibition% @1 nM): 9.28%; inhibition at 0.01 µM (PDE4B2 [1]): 58.9%; inhibition at 0.1 µM (PDE4B2 [1]): 96.6%
11.30 | 48.00 |  | Cn1cc2c(n1)CN(c1nc3c(c(NC4(CO)CCC4)n1)[S+]([O-])CC3)CC2 (stereo not drawn) [Compound 30] | 
76.13 | 100.03 | 18.98 | COc1ccc2c(c1)OC[C@H]1CN(c3nc4c(c(NC5(CO)CCC5)n3)[S+]([O-])CC4)CC[C@H]21 (stereo partly drawn) [Compound 110] | 
 |  |  | [O-][S@+]1CCc2nc(N3CCc4cc(N5CCCC5)cnc4C3)nc(NC3(CO)CCC3)c21 [Compound 184, (R)-4-((1-(hydroxymethyl)cyclobutyl)amino)-2-(3-(pyrrolidin-1-yl)-5,8-dihydro-1,7-naphthyridin-7(6H)-yl)-6,7-dihydrothieno[3,2-d]pyrimidine 5-oxide] | inhibition at 0.001 µM (PDE4B2 [2]): 36.5%; inhibition at 0.01 µM (PDE4B2 [2]): 94.3%; inhibition at 0.1 µM (PDE4B2 [2]): 100%
28.76 | 93.47 | 3.67 | [O-][S+]1CCc2nc(N3CCc4cc(N5CC(F)(F)C5)ccc4C3)nc(NC3(CO)CCC3)c21 (stereo not drawn) [Compound 88] | 
 |  |  | [O-][S@+]1CCc2nc(N3CC[C@H]4c5ncc(Cl)cc5OC[C@@H]4C3)nc(NC3(CO)CCC3)c21 [Compound 114, (R)-2-((6aS,10aR)-3-chloro-6a,9,10,10-tetrahydro-6H-pyrano[3,2-b:5,4-c']dipyridin-8(7H)-yl)-4-((1-(hydroxymethyl)cyclobutyl)amino)-6,7-dihydrothieno[3,2-d]pyrimidine 5-oxide] | inhibition at 0.001 µM (PDE4B2 [2]): -1.54%; inhibition at 0.01 µM (PDE4B2 [2]): 8.74%; inhibition at 0.1 µM (PDE4B2 [2]): 54.5%
96.96 | 100.72 | 32.85 | [O-][S+]1CCc2nc(N3CCc4cc(-c5ncco5)ccc4C3)nc(NC3(CO)CCC3)c21 (stereo not drawn) [Compound 84] | 
